Test system: Control cells (no T1R1/T1R3)
Experiment: Calcium-based receptor assay in control cells not expressing the receptor
Format: cell-based, human
Settings: change in fluorescence (ΔF)
From the text: We developed a unique functional umami receptor assay to evaluate and quantify umami in tomato and other crude plant or food extracts using the BRET technique: to test the principle we used the donor and acceptor proteins relating to BRET-2. In short, the human T1R1 and T1R3 taste receptors were cloned and fused with Renilla luciferase (Rluc) as donor protein; green fluorescent protein-2 (GFP2) served as acceptor protein and was fused to β-arrestin-2. Both constructs were transfected into a HEK293 cell line cells) for heterologous expression of the proteins. Various mammalian cell lines have been reported to be highly suitable for expression of receptors or other proteins, with HEK293 (human embryonic kidney) cells and CHO (Chinese hamster ovary) cells being some of the most versatile and suitable ones^12. Similarly, GPCRs can be expressed in various ways as described in multiple publications, such as transient^6, 8, 13-15 or stable (constitutive or inducible)^6, 9, 16, 17 expression, depending on the nature of the experiment, the respective receptor or the available time. Upon receptor stimulation with an agonist or crude extracts, the β-arrestin-2/GFP-2 protein interacts with the activated receptor thus bringing GFP-2 in close proximity with luciferase, making energy transfer between these two proteins possible and generating a BRET signal. In the presence of oxygen the luciferase catalyses the transformation of the substrate DeepBlueC into coelenteramide, which can be measured at 395-410 nm. If GFP-2 is in close proximity to the luciferase and energy transfer takes place, the emission will shift to 510 nm; this is referred to as the BRET signal and is expressed as ratio between the acceptor (GFP-2) and the donor (Renilla luciferase). The following experiments are designed to illustrate that conventional calcium-based functional receptor assays are not suitable for measuring the effects of crude extracts; in contrast, the BRET assay (as indicated here with umami) can clearly measure specific receptor responses using crude natural extracts. Moreover, the assay is also sensitive enough for detecting differences of receptor activation between the different tomato samples. Materials & Methods: Chemicals and Media: Fluo-4 AM was from Molecular Probes (# F-14202, prepared as 5 mM stock in DMSO), DMEM (with 4.5 g/l glucose and ultraglutamine, # BE12-604F) was from Lonza, trypsin-EDTA, Lipofectamine 2000, OptiMem and FCS were obtained from Life Technologies Invitrogen. Monosodium glutamate (MSG), Inosine 5′-monophosphate as well as all other chemicals were from Sigma-Aldrich. The plasmid encoding GFP2-β-arrestin-2 was purchased from BioSignal Packard (#6310176). Coelenterazine 400A (a DeepBlueC derivative) and Coelenterazine-H were from VWR International (# BTIU10125-1 and 233903-50, respectively). All other cell culture supplies were from Greiner BioOne. Receptor Fusion Constructs, Cell Lines, and Media: The human T1R1 and human T1R3 umami receptors were fused at their C-terminal in frame to Renilla Luciferase (Rluc) using standard molecular cloning techniques and the codon-humanized pRluc-N3 vector from PerkinElmer (#6310220). For expression of the umami receptors and the construct encoding GFP-2/β-arrestin-2, HEK293 cells (human embryonic kidney cells, ATCC) were used using traditional transfection methods (see also below). HEK293 cells were maintained in DMEM and 10% FBS at 37° C./5% CO2. Tomato Extracts: The tomato extracts which served as representative natural, complex test material were prepared as follows: Frozen tomato samples (in −80° C.) were weighed and dissolved in an equal amount of water. After the seeds and locular tissues (pulp) were removed and put aside, the tomato pericarp (flesh) was ground using a mortar and pestle. The seeds and pulp were then added back to the mixture ensuring that they are well mixed and the seeds were not crushed. […]

`N[C@@H](CCC(=O)O)C(=O)[O-].[Na+]` [MSG, Monosodium glutamate] was tested, and the “release of intracellular calcium, Control cells (no T1R1/T1R3), average” value (100 μM MSG) was 1135, the “release of intracellular calcium, Control cells (no T1R1/T1R3), meas. 1” value (100 μM MSG) was 1102 and the “release of intracellular calcium, Control cells (no T1R1/T1R3), meas. 2” value (100 μM MSG) was 1168. For the same compound, the “release of intracellular calcium, Control cells (no T1R1/T1R3), average” value (1 mM MSG) was 1060, the “release of intracellular calcium, Control cells (no T1R1/T1R3), meas. 1” value (1 mM MSG) was 1100 and the “release of intracellular calcium, Control cells (no T1R1/T1R3), meas. 2” value (1 mM MSG) was 1020. The “release of intracellular calcium, Control cells (no T1R1/T1R3), average” value (10 mM MSG) was 1115, the “release of intracellular calcium, Control cells (no T1R1/T1R3), meas. 1” value (10 mM MSG) was 1200 and the “release of intracellular calcium, Control cells (no T1R1/T1R3), meas. 2” value (10 mM MSG) was 1030.
